Results as given in US20230406865A1, “CRYSTAL FORM OF FREE BASE OF INHIBITOR CONTAINING BICYCLIC RING DERIVATIVE AND PREPARATION METHOD AND APPLICATION OF CRYSTAL FORM” (SHANGHAI HANSOH BIOMEDICAL CO., LTD., priority 2020, published 2023).
pIC50: −log10 of the molar value.

Legend:
[1] = tested on: xenograft tumor of human myeloid thyroid cancer cell TT; experiment: Subcutaneous xenograft tumor model of human myeloid thyroid cancer cell TT; type: in vivo, BALB/c nude mice
Method: BALB/c nude mice, female, 6-8 weeks old, weighing 18-22 g, provided by Shanghai Lingchang Biotechnology Co., Ltd.
TT cells were cultured in vitro in a monolayer under the following conditions: F-12K medium with 20% heat-inactivated fetal bovine serum and 1% penicillin-streptomycin double antibodies at 37° C. and 5% CO2. Digestion with trypsin-EDTA was performed to treat the passage twice a week. When cells were in an exponential growth period, cells were collected, counted and inoculated.
TT cells were collected when they were full in a logarithmic growth period, ensuring vitality over 90%. 0.2 mL of cell suspension containing about 1×10^7 of TT cells (cells suspended in basic F-12K medium and added with 50% Matrigel) was inoculated subcutaneously into the right back […] of each mouse when the mean volume of the tumor reached about 150-200 mm^3 to start group administration.
1. The day of grouping was day 0 (DO). The interval of BID administration was 6-8 h/18-16 h. The first administration was given in the afternoon of day DO and the last administration was given in the morning of day D21.
2. Administration volume: 10 μL/g according to the body weight of nude mice.
Animal grouping: animals were weighed before administration and the tumor volume was measured. Animals were randomly grouped according to tumor volume (randomized grouping design) with 5 animals per group.
Experimental index: the diameter of tumor was measured by vernier caliper twice a week. The tumor volume was calculated by the formula: V=a×b^2/2, a and b denote the long and short diameter of the tumor, respectively. The tumor inhibition efficacy of the compounds was evaluated by TGI (%). TGI (%)=(1-(TVTreatment/Dx−TVTreatment/D1)/(TVControl/Dx−TVControl/D1))×100%.

[2] = tested on: phosphorylation of ERK, a downstream signal factor of TT cells; experiment: Inhibition of ERK phosphorylation in TT cells (Western Blot); type: cell-based, human; details: for inhibition of ERK phosphorylation: 2 hours, TT cells; for inhibition of phosphorylation level of ERK in TT cells: 3.7-300 nM, 2 hours at 37° C., Western Blot
Text: 2.2 Experimental Reagents: • pERK antibody was purchased from Cell Signaling Technology Company, the article number was 43705; • Total ERK antibody was purchased from Cell Signaling Technology Company, the article number was 4696S; • The internal reference GAPDH was purchased from Cell Signaling Technology Company, the article number was 51745; • The fluorescent secondary antibodies were purchased from LI-COR Company, the article numbers were P/N 925-68071 and P/N 926-32210.
In this experiment, the inhibitory effect of compounds on the phosphorylation level of ERK, a downstream signaling factor in TT cells was measured by Western Blot method. When TT cells were cultured to the appropriate fusion level, the cells were collected and adjusted to the appropriate cell concentration using complete medium, the cell suspension was spread in a 24-well plate, 1 mL per well, and placed in the wall of a 37° C., 5% CO2 incubator overnight, and compound dilutions of different concentrations (3.7 nM, 11.1 nM, 33.3 nM, 100 nM, 300 nM) were added at 37° C. and acted for 2 hours; the cell supernatant was aspirated, washed one time with PBS, and the proteins were collected with lysate; after protein denaturation, Western blot experiments were performed: performing protein electrophoresis at 120V for approximately 75 minutes, followed by 45 minutes of transfer to PVDF membranes at 10V with a semi-dry transfer instrument, enclosing at 5% BSA for 1 hour at room temperature, and then PVDF membranes were cut into strips of appropriate size and incubated with prepared antibody dilutions overnight at 4° C. and washed 6 times with TBST, followed by incubating with goat anti-mouse secondary antibody and goat anti-rabbit secondary antibody for 1 hour at room temperature, and the membrane was washed 6 times with TBST for imaging in the Biorad ChemiDoc™ MP Imaging System.
The inhibitory effect of compounds on ERK phosphorylation levels in TT cells at different concentrations was determined by detecting protein bands.

hERG = hERG (Homo sapiens, UniProt Q12809); experiment: cell-based
Sequence of hERG (Q12809 whole entry): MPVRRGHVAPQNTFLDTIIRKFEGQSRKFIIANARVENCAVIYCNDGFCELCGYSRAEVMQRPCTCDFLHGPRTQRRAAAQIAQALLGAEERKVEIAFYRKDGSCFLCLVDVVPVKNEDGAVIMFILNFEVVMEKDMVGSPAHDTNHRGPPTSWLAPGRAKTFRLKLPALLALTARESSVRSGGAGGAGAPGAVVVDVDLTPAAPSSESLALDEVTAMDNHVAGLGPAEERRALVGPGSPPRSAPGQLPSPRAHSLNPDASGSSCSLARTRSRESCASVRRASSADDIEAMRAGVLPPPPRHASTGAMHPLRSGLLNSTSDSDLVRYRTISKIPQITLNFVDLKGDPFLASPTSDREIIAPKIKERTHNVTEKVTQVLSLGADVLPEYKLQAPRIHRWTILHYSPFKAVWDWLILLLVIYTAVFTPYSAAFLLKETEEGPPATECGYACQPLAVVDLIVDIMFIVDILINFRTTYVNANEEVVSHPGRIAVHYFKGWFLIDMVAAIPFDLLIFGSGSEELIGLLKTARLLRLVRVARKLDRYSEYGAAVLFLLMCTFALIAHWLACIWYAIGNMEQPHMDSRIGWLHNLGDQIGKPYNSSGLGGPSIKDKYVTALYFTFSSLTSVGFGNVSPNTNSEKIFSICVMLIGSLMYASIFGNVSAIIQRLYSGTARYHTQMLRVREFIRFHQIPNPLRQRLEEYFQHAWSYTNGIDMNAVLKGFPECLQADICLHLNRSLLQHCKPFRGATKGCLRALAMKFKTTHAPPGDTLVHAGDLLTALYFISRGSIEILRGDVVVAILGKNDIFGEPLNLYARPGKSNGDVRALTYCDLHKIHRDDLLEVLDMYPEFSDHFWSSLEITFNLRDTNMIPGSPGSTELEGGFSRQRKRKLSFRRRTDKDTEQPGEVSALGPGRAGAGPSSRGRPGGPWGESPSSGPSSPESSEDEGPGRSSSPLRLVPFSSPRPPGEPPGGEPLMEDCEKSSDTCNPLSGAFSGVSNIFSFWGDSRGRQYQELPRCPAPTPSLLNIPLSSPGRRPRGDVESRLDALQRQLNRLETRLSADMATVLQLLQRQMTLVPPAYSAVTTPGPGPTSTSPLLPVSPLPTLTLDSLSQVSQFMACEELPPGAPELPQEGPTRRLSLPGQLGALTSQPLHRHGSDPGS
Method: Terfenadine (Sigma-Aldrich, MKBX6318V); • HEK293-hERG cell line (human embryonic kidney cells stably expressing hERG channels), provided by Academy of Military Medical Sciences.
Human embryonic kidney cells (HEK293) stably expressing hERG channels were cultured in DMEM medium (DMEM, HyClone) in a 37° C. cell incubator containing 5% CO2. About 10% fetal bovine serum (FBS, gibco) was added to the cell culture medium.
Human embryonic kidney cells stably expressing hERG channels (HEK293-hERG) were used for the experiment. HEK293 cells were clamped with the Multi Clamp 700B manual patch clamp system to form a whole-cell voltage clamp pattern, and hERG current was induced with the corresponding voltage. […] The peak values of tail current recorded under the solvent control were taken as 100%, and the data of positive control and test samples were standardized. Curve fitting and IC50 calculation were done in the software GraphPad Prism 5.00 using the standard Hill equation.

Row | Structure (SMILES) | inhibition of ERK phosphorylation ([2]; 3.7 nM) | inhibition of ERK phosphorylation ([2]; 11.1 nM) | inhibition of ERK phosphorylation ([2]; 33.3 nM) | inhibition of ERK phosphorylation ([2]; 100 nM) | inhibition of ERK phosphorylation ([2]; 300 nM) | inhibition of phosphorylation level of ERK in TT cells [2] | further results
1 | COc1ccc(CN2C3CC2CN(c2ccc(-c4cc(N5CC(C)(C#N)C5)cn5ncc(C#N)c45)cn2)C3)cn1 [Embodiment 77, 6-(3-Cyano-3-methylazetidin-1-yl)-4-(6-(6-((6-methoxypyridin-3-yl)methyl)-3,6-diazabicyclo[3.1.1]heptan-3-yl)pyridin-3-yl)pyrazolo[1,5-a]pyridine-3-carbonitrile] |  |  |  |  |  |  | Tumor volume (mean ± SEM) d 0 ([1]; 10 mg/kg oral BID): 205.23 ± 16.57 mm^3; Tumor inhibition rate/TGI d 22 ([1]; 10 mg/kg oral BID): 129.77%; Tumor volume (mean ± SEM) d 22 ([1]; 10 mg/kg oral BID): 144.14 ± 8.95 mm^3
2 | C#C[C@](C)(O)COc1cc(-c2ccc(N3CC4CC(C3)N4Cc3ccc(OC)nc3)nc2)c2c(C#N)cnn2c1 [Embodiment 64, 6-(((S)-2-hydroxy-2-methylbut-3-yn-1-yl)oxy)-4-(6-(6-((6-methoxypyridin-3-yl)methyl)-3,6-diazabicyclo[3.1.1]heptan-3-yl)pyridin-3-yl)pyrazolo[1,5-a]pyridine-3-carbonitrile] | the inhibition level was weaker | half | the degree of inhibition was reduced | completely inhibit | completely inhibit | significantly inhibit | 
3 | COc1ncc(CN2C3CC2CN(c2ccc(-c4cc(C#CC(C)(C)O)cn5ncc(C#N)c45)cn2)C3)cc1F [Embodiment 18, 4-(6-(6-((5-Fluoro-6-methoxypyridin-3-yl)methyl)-3,6-diazabicyclo[3.1.1]heptan-3-yl)pyridin-3-yl)-6-(3-hydroxy-3-methylbut-1-yn-1-yl)pyrazolo[1,5-a]pyridine-3-carbonitrile] |  |  |  |  |  |  | Tumor volume (mean ± SEM) d 0 ([1]; 30 mg/kg oral BID): 199.73 ± 24.07 mm^3; Tumor inhibition rate/TGI d 22 ([1]; 30 mg/kg oral BID): 99.64%; Tumor volume (mean ± SEM) d 22 ([1]; 30 mg/kg oral BID): 203.56 ± 31.74 mm^3
4 | C#C[C@@](C)(O)COc1cc(-c2ccc(N3CC4CC(C3)N4Cc3ccc(OC)nc3)nc2)c2c(C#N)cnn2c1 [Embodiment 63, 6-(((R)-2-hydroxy-2-methylbut-3-yn-1-yl)oxy)-4-(6-(6-((6-methoxypyridin-3-yl)methyl)-3,6-diazabicyclo[3.1.1]heptan-3-yl)pyridin-3-yl)pyrazolo[1,5-a]pyridine-3-carbonitrile] | about half | almost completely inhibited | almost completely inhibited | almost completely inhibited | almost completely inhibited | significantly inhibit | pIC50 (hERG): 4.77; inhibition at 0.1 μmol/L (hERG; human): 3.24%; inhibition at 1 μmol/L (hERG; human): 8.39%; inhibition at 3 μmol/L (hERG; human): 12.7%; inhibition at 10 μmol/L (hERG; human): 35.4%; inhibition at 30 μmol/L (hERG; human): 58.8%
